Results on 13 compounds are retold here after patent publication US7135466B2 (Kirin Beer Kabushiki Kaisha, priority 1999, dated 2006).

Read-outs that look alike come from different tables or passages of the source. Bounds are passed on as bounds.

The target in one test is T1, human KDR (Homo sapiens, UniProt P35968).
T1 construct: expressed in transfected cells; host or cells: NIH 3T3 cells
Put plainly: Inhibitory activity against KDR phosphorylation (NIH 3T3 cells transfected with human KDR, VEGF). It counts as cell-based. The note with it: VEGF 100 ng/ml. The procedure: Measurement of Inhibitory Activity Against KDR Phosphorylation
NIH 3T3 cells (Sawano A et al., Cell Growth & Differentiation, 7, 213–221 (1996)) prepared by transfection of human KDR were cultured in a DMEM medium containing 10% FBS (GIBCO BRL) within a 5% carbon dioxide incubator until 50 to 70% confluent. The harvested cells were inoculated into wells of a collagen-type one-coat 96-well flat-bottom plate, each containing the same medium, in an amount of 1.5×10^4 per well, followed by cultivation at 37° C. overnight. The medium was then replaced by a DMEM medium containing 0.1% FBS. A solution of a test compound in dimethyl sulfoxide was added to each well, and the cultivation was carried out at 37° C. for additional one hr. A human recombinant vascular endothelial growth factor (hereinafter abbreviated to “VEGF”) was added to a concentration of 100 ng/ml, and the stimulation of cells was carried out at 37° C. for 2 min. The medium was removed, the cells were washed with phosphate buffered saline (pH 7.4), and 50 μl of a solubilization buffer (20 mM HEPES (pH 7.4), 150 mM NaCl, 0.2% Triton X-100, 10% glycerol, 5 mM sodium orthovanadylate, 5 mM disodium ethylenediaminetetraacetate, and 2 mM Na4P2O7) was then added thereto. The mixture was shaken at 4° C. for 2 hr to prepare a cell extract.
An anti-phospho-tyrosine antibody (PY20; Transduction Laboratories) was immobilized on a microplate for ELISA (Maxisorp; NUNC), and the whole quantity of the cell extract was transferred to the wells, and the immobilized antibody was reacted with the phosphorylated protein at 4° C. overnight. After washing, an anti-KDR antibody (Santa Cruz) was allowed to react at room temperature for one hr, and, further, after washing, a peroxidase-labeled anti-rabbit Ig antibody (Amersham) was allowed to react at room temperature for one hr. After washing, a chromophoric substrate for peroxidase (Sumitomo Bakelite Co., Ltd.) was added thereto and was allowed to react at room temperature. After a suitable level of color development, a reaction termination solution was added to stop the reaction, and the absorbance at 450 nm was measured with a microplate reader. The KDR phosphorylation activity for each well was determined by presuming the absorbance with the addition of VEGF and without the addition of the medicament to be 100% KDR phosphorylation activity and the absorbance without the medicament and VEGF to be 0% KDR phosphorylation activity.
The concentration of the test compound was varied on several levels, the inhibition (%) of KDR phosphorylation was determined for each case, and the concentration of the test compound necessary for inhibiting 50% of KDR phosphorylation (IC50) was calculated.

Test [1] deals with neointima of balloon-injured left carotid artery. Put plainly: Rat carotid balloon injury model. The note with it: po, 336 h, read-out: I/M ratio, inhibition (%). The format is in vivo. The procedure:
Rat Carotid Balloon Injury Model
Wistar male rats ([…]) were anesthetized with pentobarbital anesthesia, the right femoral region was incised from the rats, a Fogaty 2F catheter was inserted through the right femoral artery and was led to the left carotid artery, and abrasion was made three times with an expansion diameter of 2.5 mm.
The test compound was suspended in 1% cremophore, and the suspension was orally administered at 0.4 ml/100 g B.W. twice a day through an oral probe for rats for 2 weeks from the day before an operation. On the second week after the operation, the rats were sacrificed by ether. The left carotid artery was removed and was fixed in buffered formalin. Sliced preparations embedded in paraffin were stained with HE and were subjected to image analysis for the measurement of the neointima area (I) and media area (M) in the section of injured blood vessal. I/M was calculated as an index for the evaluation of drug efficacy.

In a further test the target is T2, c-kit (Homo sapiens, UniProt P10721).
T2 construct: MO7e (human megakaryocytic leukemia cell line) which had been arrested for 20 hr; endogenous in cells; host or cells: MO7e human megakaryocytic leukemia cell line
The test can be described thus: Inhibitory activity against c-kit autophosphorylation (MO7e cells, h-SCF). It counts as cell-based. The note with it: for IC50: MO7e cells, read-out: c-kit IC50; for inhibition at 1 µM: Mo7e, figure within parentheses in −( ) or >1000( ), at 1000 nM. In short, it runs like this: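 Growth-arrested (20 hr) MO7e; cpd in DMSO, 1 hr; h-SCF 50 ng/ml, 5 min; lyse. ELISA: anti-pTyr (PY-20) capture, anti-c-kit 1° Ab, HRP anti-rabbit 2° Ab, A450.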

Another test has as its target T3, PDGF-Ra (Homo sapiens, UniProt P16234).
T3 construct: host or cells: G-292 human osteosarcoma cells
Put plainly: Inhibitory activity against PDGF-Ra phosphorylation by PDGF-AA stimulation using G292. It counts as cell-based. As to conditions: > means inhibition at indicated concentration not more than 50%, < and << not less than 50%, read-out: PDGF (E) IC50. In short, it runs like this: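 G-292 human osteosarcoma cells in 0.1% FBS medium overnight, given compound for 1 hr at 37° C, then PDGF-AA 50 ng/ml for 5 min. Lysates captured on anti-phosphotyrosine (PY-20) plates and probed with anti-PDGF-Ra plus HRP secondary; absorbance at 450 nm.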

Test [2] deals with intima of balloon-injured coronary vessel. Put plainly: Porcine coronary balloon injury model. The format is in vivo. The note with it: 10 mg/kg orally twice a day for 28 days, gelatin capsule, shoats. The procedure:
Porcine Coronary Balloon Injury Model Edible shoats (24 to 31 kg) were anesthetized with telazol and xylazine, a balloon catheter was inserted through the femoral artery, and the descending branch in front of the heart on the left and the right rotator branch were injured under vasographing. For 28 days from the operation, the compound of Example 679 was orally administered as a gelatin capsule at a dose of 10 mg/kg twice a day. Further, only a gelatin capsule was administered as a control. In the test, each group consisted of 6 shoats. On the 28th day from the operation, the shoats were sacrificed with pentobarbital and were perfused with buffered formalin, and the heart was then removed. Paraffin embedded preparations of the injured blood vessel portion were sliced and stained with HE, followed by image analysis to measure the intima area (IA), media area (MA), and vessel area (VA), and the fissure length (FL) and vessel perimeter (VP) of the inner elastic plate. IA/MA and (IA/VA)/(FL/VP) were calculated as an index for the evaluation of drug efficacy.

[3] abbreviates: in vivo, dose: 30 mg/kg, orally twice a day for 2 weeks, Wistar male rats.
Setting [4] is: in vivo, orally twice a day for 2 weeks, Wistar male rats.

T1 sequence (P35968 20-1356): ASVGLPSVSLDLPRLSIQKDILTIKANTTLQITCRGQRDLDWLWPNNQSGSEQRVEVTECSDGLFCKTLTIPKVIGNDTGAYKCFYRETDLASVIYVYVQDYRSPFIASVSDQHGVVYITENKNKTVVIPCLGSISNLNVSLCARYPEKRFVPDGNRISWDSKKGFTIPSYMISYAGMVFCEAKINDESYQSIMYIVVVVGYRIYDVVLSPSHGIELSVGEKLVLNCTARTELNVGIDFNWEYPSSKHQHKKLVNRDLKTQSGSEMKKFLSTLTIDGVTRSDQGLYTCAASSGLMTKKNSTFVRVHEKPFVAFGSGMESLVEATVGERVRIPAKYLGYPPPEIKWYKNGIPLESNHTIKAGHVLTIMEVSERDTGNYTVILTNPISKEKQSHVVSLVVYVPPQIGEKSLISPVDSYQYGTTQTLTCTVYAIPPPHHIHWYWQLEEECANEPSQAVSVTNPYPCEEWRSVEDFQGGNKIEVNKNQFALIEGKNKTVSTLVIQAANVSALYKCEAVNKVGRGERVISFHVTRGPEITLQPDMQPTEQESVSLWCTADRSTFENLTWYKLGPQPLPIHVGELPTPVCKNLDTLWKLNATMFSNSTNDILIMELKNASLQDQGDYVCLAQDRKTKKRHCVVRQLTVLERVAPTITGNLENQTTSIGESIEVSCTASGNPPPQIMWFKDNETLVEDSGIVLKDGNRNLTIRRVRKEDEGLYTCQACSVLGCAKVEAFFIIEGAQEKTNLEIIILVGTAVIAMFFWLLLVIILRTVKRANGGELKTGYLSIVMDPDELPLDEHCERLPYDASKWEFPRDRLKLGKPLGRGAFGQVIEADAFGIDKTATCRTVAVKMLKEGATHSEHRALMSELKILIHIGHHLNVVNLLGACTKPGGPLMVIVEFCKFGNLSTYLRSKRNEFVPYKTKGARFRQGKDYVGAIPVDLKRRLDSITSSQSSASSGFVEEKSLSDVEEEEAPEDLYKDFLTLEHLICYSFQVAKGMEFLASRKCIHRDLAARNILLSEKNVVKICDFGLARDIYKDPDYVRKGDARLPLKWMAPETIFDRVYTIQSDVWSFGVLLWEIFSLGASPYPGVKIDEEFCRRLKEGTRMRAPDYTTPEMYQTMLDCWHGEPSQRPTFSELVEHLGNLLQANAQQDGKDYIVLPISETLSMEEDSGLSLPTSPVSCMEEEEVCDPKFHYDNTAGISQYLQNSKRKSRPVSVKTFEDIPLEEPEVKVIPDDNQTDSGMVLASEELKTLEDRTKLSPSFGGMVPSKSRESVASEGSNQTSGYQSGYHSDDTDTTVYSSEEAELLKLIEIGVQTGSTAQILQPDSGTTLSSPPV
T2 sequence (P10721 26-976): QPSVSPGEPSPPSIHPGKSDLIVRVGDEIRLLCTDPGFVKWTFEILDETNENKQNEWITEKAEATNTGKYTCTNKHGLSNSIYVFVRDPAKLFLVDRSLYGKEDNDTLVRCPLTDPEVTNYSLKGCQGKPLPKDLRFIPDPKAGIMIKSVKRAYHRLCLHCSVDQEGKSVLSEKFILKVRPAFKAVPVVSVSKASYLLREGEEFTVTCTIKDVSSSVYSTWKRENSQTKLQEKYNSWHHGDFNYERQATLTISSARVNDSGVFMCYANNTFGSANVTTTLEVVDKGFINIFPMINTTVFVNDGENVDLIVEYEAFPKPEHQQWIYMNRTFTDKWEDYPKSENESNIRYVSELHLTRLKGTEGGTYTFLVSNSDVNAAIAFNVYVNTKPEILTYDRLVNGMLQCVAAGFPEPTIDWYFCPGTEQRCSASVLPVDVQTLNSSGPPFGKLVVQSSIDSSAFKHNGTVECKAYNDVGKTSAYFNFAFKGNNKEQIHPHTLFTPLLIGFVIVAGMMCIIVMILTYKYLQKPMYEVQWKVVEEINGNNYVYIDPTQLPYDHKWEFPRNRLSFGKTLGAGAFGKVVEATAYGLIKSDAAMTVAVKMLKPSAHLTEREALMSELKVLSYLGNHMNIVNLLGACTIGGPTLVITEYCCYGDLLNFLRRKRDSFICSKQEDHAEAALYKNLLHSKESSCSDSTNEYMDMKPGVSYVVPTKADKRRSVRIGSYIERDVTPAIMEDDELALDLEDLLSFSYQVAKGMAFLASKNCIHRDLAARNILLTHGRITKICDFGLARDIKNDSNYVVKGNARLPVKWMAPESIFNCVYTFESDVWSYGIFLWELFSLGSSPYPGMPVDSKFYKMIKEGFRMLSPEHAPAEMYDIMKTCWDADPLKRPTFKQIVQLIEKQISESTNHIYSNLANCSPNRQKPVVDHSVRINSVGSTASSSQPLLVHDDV
T3 sequence (P16234 24-1089): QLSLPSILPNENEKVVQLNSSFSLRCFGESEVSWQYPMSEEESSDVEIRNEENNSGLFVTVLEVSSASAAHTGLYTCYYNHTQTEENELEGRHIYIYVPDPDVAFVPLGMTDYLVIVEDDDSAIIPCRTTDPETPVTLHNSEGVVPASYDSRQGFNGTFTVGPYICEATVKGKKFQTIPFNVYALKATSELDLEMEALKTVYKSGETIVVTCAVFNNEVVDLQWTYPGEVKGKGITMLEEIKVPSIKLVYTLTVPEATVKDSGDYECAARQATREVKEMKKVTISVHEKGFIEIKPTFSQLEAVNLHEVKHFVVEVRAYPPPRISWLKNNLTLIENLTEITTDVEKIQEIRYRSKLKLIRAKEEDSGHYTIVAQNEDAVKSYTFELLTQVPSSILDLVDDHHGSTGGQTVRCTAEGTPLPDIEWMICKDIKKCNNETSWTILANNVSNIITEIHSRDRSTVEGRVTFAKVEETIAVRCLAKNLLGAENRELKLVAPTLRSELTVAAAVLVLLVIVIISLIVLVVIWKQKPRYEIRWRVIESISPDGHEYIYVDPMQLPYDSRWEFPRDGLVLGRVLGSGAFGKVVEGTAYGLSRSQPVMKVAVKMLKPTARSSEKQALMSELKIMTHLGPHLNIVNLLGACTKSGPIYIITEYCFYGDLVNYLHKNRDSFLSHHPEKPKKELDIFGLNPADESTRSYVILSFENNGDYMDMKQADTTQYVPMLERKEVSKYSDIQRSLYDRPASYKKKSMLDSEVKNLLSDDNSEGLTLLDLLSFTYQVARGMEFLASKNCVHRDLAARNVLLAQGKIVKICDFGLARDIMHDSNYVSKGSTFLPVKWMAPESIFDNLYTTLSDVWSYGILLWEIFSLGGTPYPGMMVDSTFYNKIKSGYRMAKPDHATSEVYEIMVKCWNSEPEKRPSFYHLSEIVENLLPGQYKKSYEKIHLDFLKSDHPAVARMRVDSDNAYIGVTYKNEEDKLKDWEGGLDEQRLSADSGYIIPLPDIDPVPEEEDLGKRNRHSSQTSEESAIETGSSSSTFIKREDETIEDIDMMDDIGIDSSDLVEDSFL

One may read the IC50 as the concentration that gives 50% inhibition. With `COc1cc2nccc(Oc3ccc(NC(=O)Oc4ccccc4C)cc3)c2cc1OC` [Example 223, 2-Methylphenyl N-{4-[(6,7-dimethoxy-4-quinolyl)oxy]phenyl}carbamate], the IC50 turned out to be 38 nM against human KDR and 101 nM at c-kit (h-SCF 50 ng/ml). In addition, in test [1], the inhibition in vivo at 30 mg/kg was determined as 41%.
Take `COc1cc2nccc(Oc3cc(C)c(NC(=O)OC4CCCCCC4)cc3C)c2cc1OC` [Example 287, Cycloheptyl N-{4-[(6,7-dimethoxy-4-quinolyl)oxy]-2,5-dimethylphenyl}carbamate]: the IC50 is more than 1000 nM at human KDR, 13 nM at PDGF-Ra (Pharmacological Test Example 1) and 228 nM on c-kit (h-SCF 50 ng/ml). In test [1] (setting [3]), the inhibition in vivo at 30 mg/kg was found to be 37%.
As to `C#CCC(CC)OC(=O)Nc1ccc(Oc2ccnc3cc(OC)c(OC)cc23)cc1` (centres unmarked) [Example 408, 1-Ethyl-3-butynyl N-{4-[(6,7-dimethoxy-4-quinolyl)oxy]phenyl}carbamate], the IC50 against human KDR was 108 nM; on PDGF-Ra, less than 10 nM; on c-kit (50 ng/ml h-SCF), 192 nM. Besides, the inhibition in vivo at 30 mg/kg in test [1] (setting [3]) came to 50%.
The like results for `COc1cc2nccc(Oc3ccc(NC(=O)OCCCN4CCOCC4)cc3)c2cc1OC` [Example 421, 3-Morpholinopropyl N-{4-[(6,7-dimethoxy-4-quinolyl)oxy]phenyl}carbamate] were, in that order, 692 nM, less than 10 nM, 34 nM and 42%.
The inhibition is the change of the read-out against control, counted positive when it falls. On to `CCN(CC)CCNC(=S)Nc1ccc(Oc2ncnc3cc(OC)c(OC)cc23)cc1` [Example 516, N-{4-[(6,7-Dimethoxy-4-quinazolinyl)oxy]phenyl}-N′-(2-diethylaminoethyl)thiourea], for which the IC50 against human KDR was more than 1000 nM; at PDGF-Ra, 50 nM. Moreover, the inhibition in vivo at 30 mg/kg in test [1] (setting [3]) turned out to be 32%. At c-kit, the inhibition at 1 µM was determined as 27%.
On to `COc1cc2ncnc(Oc3ccc(NC(=O)N[C@H]4CCN(Cc5ccccc5)C4)cc3)c2cc1OC` [Example 567, N-[(3S)-1-Benzyltetrahydro-1H-3-pyrrolyl]-N′-{4-[(6,7-dimethoxy-4-quinazolinyl)oxy]phenyl}urea], for which the concentration for half-maximal inhibition (IC50) at human KDR was more than 1000 nM; at PDGF-Ra, 21 nM; on c-kit (50 ng/ml h-SCF), 118 nM. Moreover, in test [1] (setting [4]), the inhibition in vivo at 10 mg/kg was found to be 24%.
On to `COc1cc2nccc(Oc3ccc(NC(=O)NC4CCN(Cc5ccccc5)CC4)cc3)c2cc1OC` [Example 590, N-{4-[(6,7-Dimethoxy-4-quinolyl)oxy]phenyl}-N′-[4-(N-benzyl)piperidinyl]urea], for which the figures for the IC50 at human KDR, at PDGF-Ra and on c-kit (50 ng/ml h-SCF) were more than 1000 nM, 54 nM and 296 nM, respectively. Moreover, the inhibition in vivo at 30 mg/kg in test [1] (setting [3]) was determined as 86%.
The like results for `COc1cc2nccc(Oc3ccc(NC(=S)NC(=O)c4ccccc4C)cc3)c2cc1OC` [Example 614, N-{4-[(6,7-Dimethoxy-4-quinolyl)oxy]-phenyl}-N′-(2-methylbenzoyl)thiourea] were, in that order, 47 nM, less than 10 nM, 434 nM and 92%.
The corresponding values for `COc1cc2nccc(Oc3ccc(NC(=S)NC(=O)Cc4ccccc4)cc3F)c2cc1OC` [Example 615, N-{4-[(6,7-Dimethoxy-4-quinolyl)oxy]-3-fluorophenyl}-N′-(2-phenylacetyl)thiourea] are 37 nM, 17 nM, 125 nM and 43%.
In the case of `CCN(CC)CCNC(=O)Nc1ccc(Oc2ccnc3cc(OC)c(OC)cc23)cc1` [Example 622, N-[2-(Diethylamino)ethyl]-N′-{4-[(6,7-dimethoxy-4-quinolyl)oxy]phenyl}urea], the IC50 is more than 1000 nM on human KDR, 11 nM at PDGF-Ra and 355 nM at c-kit (50 ng/ml h-SCF). In test [1] (setting [3]), the inhibition in vivo at 30 mg/kg was 38%.
Take `CCN(CC)CCNC(=O)Nc1ccc(Oc2ncnc3cc(OC)c(OC)cc23)cc1[N+](=O)[O-]` [Example 647, N-[2-(Diethylamino)ethyl]-N′-{4-[(6,7-dimethoxy-4-quinazolinyl)oxy]-2-nitrophenyl}urea]: the IC50 against human KDR is 599 nM; at PDGF-Ra it was 13 nM; at c-kit (50 ng/ml h-SCF), 712 nM. Moreover, the inhibition in vivo at 10 mg/kg in test [1] (setting [4]) worked out at 32%.
On to `COc1cc2ncnc(Oc3ccc(NC(=O)NCCN4CCCCC4)c([N+](=O)[O-])c3)c2cc1OC` [Example 679, N-{4-[(6,7-Dimethoxy-4-quinazolinyl)oxy]-2-nitrophenyl}-N′-(2-piperidinoethyl)urea], for which the IC50 against human KDR was 323 nM; at PDGF-Ra it was less than 10 nM; at c-kit (50 ng/ml h-SCF) it was 337 nM. The inhibition in vivo at 10 mg/kg in test [1] (setting [4]) worked out at 54%. In test [2], the “(IA/VA)/(FL/VP) inhibition (%)” value is listed as 47 (p < 0.001) %. Besides, the “IA/MA inhibition (%)” value in test [2] is recorded as 36 (p < 0.05) %.
`CCCCN(CCCC)CCNC(=O)Nc1ccc(Oc2ncnc3cc(OC)c(OC)cc23)cc1[N+](=O)[O-]` [Example 687, N-[2-(Dibutylamino)ethyl]-N′-{4-[(6,7-dimethoxy-4-quinazolinyl)oxy]-2-nitrophenyl}urea]: the IC50 against human KDR turned out to be 176 nM; at PDGF-Ra it was 26 nM. The inhibition in vivo at 10 mg/kg in test [1] (setting [4]) is 17%. Moreover, the inhibition at 1 µM at c-kit turned out to be 34%.
